Source: patent US20040268437A1, “Method for biosynthesizing the serotonin derivatives in plants” (CHONNAM NATIONAL UNIVERSITY, priority 2003, published 2004)

How the values were obtained:
[1] = test system: potato THT; conditions: potato THT; cited from earlier work
[2] = test system: recombinant hot pepper THT; conditions: hydroxycinnamic acid derivative substrates; cited from earlier work
[3] = test system: transgenic rice plants (T14) over-expressing THT; assay: Soil treatment of transgenic rice T14 with inducers; serotonin derivative content in seeds; assay type: in vivo; conditions: seeds of transgenic rice T14; inducer 100 μM to soil, 300,000 L/ha, 20 days
Protocol: Among T2 generations of transgenic rice plants, T14 was transplanted in the soil, to which inducers for serotonin derivative biosynthesis were treated. After cultivation, the contents of serotonin derivatives in seeds of the transgenic rice plants were investigated.
As inducers for serotonin derivative biosynthesis, tyramine, tryptamine, cinnamic acid, coumaric acid, caffeic acid and ferulic acid were used. Precisely, the inducers for serotonin derivative biosynthesis were dissolved in water, making each concentration 100 μM. Then, the solutions were added at the rate of 300,000 L/ha, to the soil where rice plants (about 40 days after heading) were growing. The plants were cultivated for 20 more days.
The seeds of the plants cultivated above were collected, and the content of serotonin derivatives in them was investigated with the same method as used in the Example <1-1>, which was compared with that in seeds of wild type control rice plants.

[4] = test system: Rice plants (Variety: Nakdong); assay: Soil treatment of rice with inducers; serotonin derivative content in seeds by HPLC; assay type: in vivo; conditions: for Content of serotonin derivatives: Coumaroyl Serotonin / Content of serotonin derivatives: Feruloyl serotonin / Content of serotonin derivatives: Total content: inducer 100 μM to soil, 300,000 L/ha, 20 days; for Rank of inducers by serotonin derivatives produced: in words
Protocol: Rice plants (Variety: Nakdong) having been cultivated in the rice field were treated with inducers for serotonin derivative biosynthesis and then biosynthesis of the serotonin derivatives was investigated.
(§1) Inducers for serotonin derivative biosynthesis were prepared by dissolving tyramine, tryptamine, cinnamic acid, coumaric acid, caffeic acid and ferulic acid (Sigma-Aldrich, Korea) in water respectively to make each concentration 100 μM. And then the soil where rice plants (about 40 days after heading) had been growing was treated once with each inducer for serotonin derivative biosynthesis at the rate of 300,000 L/ha, followed by further cultivation for 20 days.
As a control group, rice plant which had been cultivated under the same conditions except the treatment with inducers for serotonin derivative biosynthesis was used.
After harvesting rice, seeds of the rice were peeled to obtain brown rice. N-(hydroxycinnamoyl)-amines were extracted from 1 g of the brown rice by known method (Ishihara et al., Biosci. Biotechnol. Biochem. 64, 1025-1031, 2000), and then, HPLC was performed.
Coumaroylserotonin and feruloylserotonin included in the extract of seeds of rice, treated with inducers for serotonin derivative biosynthesis, were quantified by HPLC using a standard substance synthesized by a well-known method (Villegas & Brodelius, Physiol. Plant. 78, 414-420, 1990).

[5] = test system: Hot pepper (Variety: Pungcheon); assay: Soil treatment of hot pepper with inducers; serotonin derivative content in sarcocarps by HPLC; assay type: in vivo; conditions: for Content of serotonin derivatives: Coumaroyl Serotonin / Content of serotonin derivatives: Feruloyl serotonin / Content of serotonin derivatives: Total content: inducer 100 μM to soil, 300,000 L/ha, 20 days; for Rank of inducers by serotonin derivatives produced: in words
Protocol: Hot pepper (Variety: Pungcheon) was treated with inducers for serotonin derivative biosynthesis, followed by an examination of biosynthesis of serotonin derivatives.
as §1, with “Particularly, inducers” for “Inducers”, “acid” for “acid (Sigma-Aldrich, Korea)”
The ripe sarcocarps of hot peppers were obtained to investigate the content of serotonin derivatives by the same method as used in the above Example <1-1>. Control group hot pepper was cultivated under the same condition as the experimental group hot pepper except the treatment with inducers for serotonin derivative biosynthesis.

| Structure (SMILES) | Use as amine substrate [1] | Maximum reaction velocity (Vmax) relative to coumaroyl-CoA [2] | Content of serotonin derivative: Coumaroyl serotonin [3] | Content of serotonin derivative: Feruloyl serotonin [3] | Content of serotonin derivative: Total content [3] | Content of serotonin derivatives: Coumaroyl Serotonin [4] | Content of serotonin derivatives: Feruloyl serotonin [4] | Content of serotonin derivatives: Total content [4] | Content of serotonin derivatives: Coumaroyl Serotonin [5] | Content of serotonin derivatives: Feruloyl serotonin [5] | Content of serotonin derivatives: Total content [5] | Rank of inducers by serotonin derivatives produced [4] | Rank of inducers by serotonin derivatives produced [5] |
| --- | --- | --- | --- | --- | --- | --- | --- | --- | --- | --- | --- | --- | --- |
| NCCCCCN [cadaverin] | not used as a substrate | – | – | – | – | – | – | – | – | – | – | – | – |
| NCCCCNCCCN [spermidine] | not used as a substrate | – | – | – | – | – | – | – | – | – | – | – | – |
| N=C(N)NCCCCN [agmatine] | not used as a substrate | – | – | – | – | – | – | – | – | – | – | – | – |
| CC(C)(COP(=O)(O)OP(=O)(O)OC[C@H]1O[C@@H](n2cnc3c(N)ncnc32)[C@H](O)[C@@H]1OP(=O)(O)O)[C@@H](O)C(=O)NCCC(=O)NCCSC(=O)C=Cc1ccccc1 [cinnamoyl-CoA] | – | 15 times | – | – | – | – | – | – | – | – | – | – | – |
| O=C(O)/C=C/c1ccc(O)c(O)c1 [Caffeic acid, caffeic acid] | – | – | 368 ng/g seeds | 430 ng/g seeds | 798 ng/g seeds | 20 ng/1 g seed | 23 ng/1 g seed | 43 ng/1 g seed | 138 ng/1 g sarcocarps | 162 ng/1 g sarcocarps | 300 ng/1 g sarcocarps | – | – |
| NCCCCN [putricine] | not used as a substrate | – | – | – | – | – | – | – | – | – | – | – | – |
| COc1cc(/C=C/C(=O)O)ccc1O [Ferulic acid, ferulic acid] | – | – | 313 ng/g seeds | 537 ng/g seeds | 850 ng/g seeds | 33 ng/1 g seed | 37 ng/1 g seed | 70 ng/1 g seed | 145 ng/1 g sarcocarps | 230 ng/1 g sarcocarps | 375 ng/1 g sarcocarps | third most | second most |
| O=C(O)C=Cc1ccccc1 [Cinnamic acid, cinnamic acid] | – | – | 403 ng/g seeds | 406 ng/g seeds | 809 ng/g seeds | 48 ng/1 g seed | 76 ng/1 g seed | 124 ng/1 g seed | 214 ng/1 g sarcocarps | 276 ng/1 g sarcocarps | 490 ng/1 g sarcocarps | produced most | produced most |
| O=C(O)/C=C/c1ccc(O)cc1 [Coumaric acid, coumaric acid] | – | – | 325 ng/g seeds | 599 ng/g seeds | 924 ng/g seeds | 15 ng/1 g seed | 21 ng/1 g seed | 36 ng/1 g seed | 120 ng/1 g sarcocarps | 170 ng/1 g sarcocarps | 290 ng/1 g sarcocarps | – | – |
| NCCCNCCCCNCCCN [spermine] | not used as a substrate | – | – | – | – | – | – | – | – | – | – | – | – |
| NCCc1c[nH]c2ccccc12 [Tryptamine, tryptamine] | not used as a substrate | – | 376 ng/g seeds | 382 ng/g seeds | 758 ng/g seeds | 20 ng/1 g seed | 28 ng/1 g seed | 48 ng/1 g seed | 61 ng/1 g sarcocarps | 79 ng/1 g sarcocarps | 140 ng/1 g sarcocarps | – | – |
